Test results as given in patent publication US11697648B2, “Fused pyrimidine pyridinone compounds as JAK inhibitors” (THERAVANCE BIOPHARMA R&D IP, LLC, priority 2019, dated 2023).

Columns and labels:
[1] = target: JAK1 (Homo sapiens (Human), UniProt P23458); experiment: Biochemical JAK1 kinase assay (LanthaScreen)
Summary of the method: (§1)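 GST-JAK + GFP-STAT1 peptide, HEPES pH 7.5/MgCl2/EGTA/Brij-35 buffer; cpd preincubation 1 h RT; ATP start, 1 h RT; stop with 10 mM EDTA + 2 nM Tb-anti-pSTAT1; TR-FRET 520/495. 4-parameter IC50 → pKi (Cheng-Prusoff).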

[2] = target: JAK2 (Homo sapiens (Human), UniProt O60674); experiment: Biochemical JAK2 kinase assay (LanthaScreen)
Summary of the method: as §1

[3] = target: JAK3 (Homo sapiens (Human), UniProt P52333); experiment: Biochemical JAK3 kinase assay (LanthaScreen); conditions: for JAK3 (pKi)-JAK1 (pKi): selectivity JAK3 over JAK1, difference of pKi
Summary of the method: as §1

[4] = target: Tyk2 (Homo sapiens (Human), UniProt P29597); experiment: Biochemical Tyk2 kinase assay (LanthaScreen)
Summary of the method: as §1

[5] = system: IL-2 stimulated STAT5 phosphorylation in Tall-1 human T cell line (JAK3); experiment: Cellular JAK3 potency assay: inhibition of IL-2 stimulated pSTAT5 in Tall-1 T cells; type: cell-based; conditions: IL-2 stimulated pSTAT5, Tall-1 T cells
Summary of the method: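 AlphaLISA SureFire Ultra measures STAT5 Tyr694/699 phosphorylation in lysed Tall-1 human T cells. Cells were exposed to compound for 1 h at 37 °C before a 30 min IL-2 challenge (300 ng/ml final). Values are pIC50 means with standard deviation from signal-versus-concentration curves.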

[6] = system: Caco-2 cell monolayers; experiment: Caco-2 permeation assay; type: in vitro ADME; conditions: 5 μM, A-B direction, with Verapamil (25 μM)
Summary of the method: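 Passive A-to-B permeability with P-gp inhibited by verapamil (25 μM); compound at 5 μM, n=2. Both compartments sampled at t0 and t120 and quantified by LC-MS/MS, giving apparent permeability in cm/sec from flux, area and concentration.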

Chain of JAK2 (O60674 whole entry): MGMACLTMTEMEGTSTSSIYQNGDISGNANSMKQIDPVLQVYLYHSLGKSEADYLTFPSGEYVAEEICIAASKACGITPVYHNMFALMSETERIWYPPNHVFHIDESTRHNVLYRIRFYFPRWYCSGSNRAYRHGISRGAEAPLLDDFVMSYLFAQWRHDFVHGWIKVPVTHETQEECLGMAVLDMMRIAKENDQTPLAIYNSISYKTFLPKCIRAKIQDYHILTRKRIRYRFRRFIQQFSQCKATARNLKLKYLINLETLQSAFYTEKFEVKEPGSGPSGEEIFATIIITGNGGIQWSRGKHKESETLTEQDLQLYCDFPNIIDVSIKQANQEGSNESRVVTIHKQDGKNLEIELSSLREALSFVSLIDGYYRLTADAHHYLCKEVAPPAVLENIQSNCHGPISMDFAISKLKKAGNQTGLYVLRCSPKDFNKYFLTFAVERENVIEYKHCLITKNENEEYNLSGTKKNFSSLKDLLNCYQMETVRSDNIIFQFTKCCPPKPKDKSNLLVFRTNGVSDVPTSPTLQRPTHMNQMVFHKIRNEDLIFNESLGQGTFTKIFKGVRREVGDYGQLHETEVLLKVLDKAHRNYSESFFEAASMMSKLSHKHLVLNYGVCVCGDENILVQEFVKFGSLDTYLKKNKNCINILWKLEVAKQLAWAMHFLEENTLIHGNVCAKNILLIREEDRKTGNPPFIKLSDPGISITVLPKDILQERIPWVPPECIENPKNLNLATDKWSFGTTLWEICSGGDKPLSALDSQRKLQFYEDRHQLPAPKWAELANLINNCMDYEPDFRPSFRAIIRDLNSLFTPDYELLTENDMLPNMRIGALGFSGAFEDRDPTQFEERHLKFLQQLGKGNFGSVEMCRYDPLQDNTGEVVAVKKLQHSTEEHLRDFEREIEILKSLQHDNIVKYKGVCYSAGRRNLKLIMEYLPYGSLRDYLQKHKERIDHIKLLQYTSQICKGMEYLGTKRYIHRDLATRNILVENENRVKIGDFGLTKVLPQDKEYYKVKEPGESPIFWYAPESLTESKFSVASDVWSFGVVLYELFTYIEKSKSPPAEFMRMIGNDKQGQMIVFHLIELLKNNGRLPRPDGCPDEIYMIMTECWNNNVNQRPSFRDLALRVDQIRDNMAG
Chain of Tyk2 (P29597 whole entry): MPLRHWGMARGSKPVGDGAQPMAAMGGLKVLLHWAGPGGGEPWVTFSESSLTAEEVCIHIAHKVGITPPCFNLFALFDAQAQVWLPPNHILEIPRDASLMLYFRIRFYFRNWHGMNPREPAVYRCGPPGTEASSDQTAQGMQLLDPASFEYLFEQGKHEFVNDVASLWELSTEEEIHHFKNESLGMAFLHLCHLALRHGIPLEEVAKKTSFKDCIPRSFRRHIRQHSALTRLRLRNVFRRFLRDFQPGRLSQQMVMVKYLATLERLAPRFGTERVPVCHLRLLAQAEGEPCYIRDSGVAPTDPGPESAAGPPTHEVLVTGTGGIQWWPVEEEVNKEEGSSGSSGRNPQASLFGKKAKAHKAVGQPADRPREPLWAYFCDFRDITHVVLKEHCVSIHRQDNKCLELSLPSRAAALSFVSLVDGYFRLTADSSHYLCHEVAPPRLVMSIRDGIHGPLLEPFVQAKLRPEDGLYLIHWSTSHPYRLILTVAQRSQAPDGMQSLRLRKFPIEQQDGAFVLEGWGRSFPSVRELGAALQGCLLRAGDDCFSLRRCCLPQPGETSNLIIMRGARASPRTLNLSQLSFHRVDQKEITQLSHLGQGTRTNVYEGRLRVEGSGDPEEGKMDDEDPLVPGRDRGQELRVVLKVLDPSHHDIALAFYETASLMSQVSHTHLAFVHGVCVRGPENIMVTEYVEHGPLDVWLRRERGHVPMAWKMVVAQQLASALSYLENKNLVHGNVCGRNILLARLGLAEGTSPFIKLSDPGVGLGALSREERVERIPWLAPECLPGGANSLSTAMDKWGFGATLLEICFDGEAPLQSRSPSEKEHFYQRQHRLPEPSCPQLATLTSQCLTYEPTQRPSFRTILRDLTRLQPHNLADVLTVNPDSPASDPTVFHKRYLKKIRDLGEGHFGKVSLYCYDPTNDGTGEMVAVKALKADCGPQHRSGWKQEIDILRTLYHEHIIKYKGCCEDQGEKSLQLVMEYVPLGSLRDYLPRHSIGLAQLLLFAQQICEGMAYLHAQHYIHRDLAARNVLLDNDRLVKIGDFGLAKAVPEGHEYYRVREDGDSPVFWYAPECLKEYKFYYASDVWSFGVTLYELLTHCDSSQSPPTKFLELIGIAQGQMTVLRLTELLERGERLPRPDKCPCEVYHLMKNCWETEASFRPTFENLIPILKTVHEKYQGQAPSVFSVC
Chain of JAK3 (P52333 whole entry): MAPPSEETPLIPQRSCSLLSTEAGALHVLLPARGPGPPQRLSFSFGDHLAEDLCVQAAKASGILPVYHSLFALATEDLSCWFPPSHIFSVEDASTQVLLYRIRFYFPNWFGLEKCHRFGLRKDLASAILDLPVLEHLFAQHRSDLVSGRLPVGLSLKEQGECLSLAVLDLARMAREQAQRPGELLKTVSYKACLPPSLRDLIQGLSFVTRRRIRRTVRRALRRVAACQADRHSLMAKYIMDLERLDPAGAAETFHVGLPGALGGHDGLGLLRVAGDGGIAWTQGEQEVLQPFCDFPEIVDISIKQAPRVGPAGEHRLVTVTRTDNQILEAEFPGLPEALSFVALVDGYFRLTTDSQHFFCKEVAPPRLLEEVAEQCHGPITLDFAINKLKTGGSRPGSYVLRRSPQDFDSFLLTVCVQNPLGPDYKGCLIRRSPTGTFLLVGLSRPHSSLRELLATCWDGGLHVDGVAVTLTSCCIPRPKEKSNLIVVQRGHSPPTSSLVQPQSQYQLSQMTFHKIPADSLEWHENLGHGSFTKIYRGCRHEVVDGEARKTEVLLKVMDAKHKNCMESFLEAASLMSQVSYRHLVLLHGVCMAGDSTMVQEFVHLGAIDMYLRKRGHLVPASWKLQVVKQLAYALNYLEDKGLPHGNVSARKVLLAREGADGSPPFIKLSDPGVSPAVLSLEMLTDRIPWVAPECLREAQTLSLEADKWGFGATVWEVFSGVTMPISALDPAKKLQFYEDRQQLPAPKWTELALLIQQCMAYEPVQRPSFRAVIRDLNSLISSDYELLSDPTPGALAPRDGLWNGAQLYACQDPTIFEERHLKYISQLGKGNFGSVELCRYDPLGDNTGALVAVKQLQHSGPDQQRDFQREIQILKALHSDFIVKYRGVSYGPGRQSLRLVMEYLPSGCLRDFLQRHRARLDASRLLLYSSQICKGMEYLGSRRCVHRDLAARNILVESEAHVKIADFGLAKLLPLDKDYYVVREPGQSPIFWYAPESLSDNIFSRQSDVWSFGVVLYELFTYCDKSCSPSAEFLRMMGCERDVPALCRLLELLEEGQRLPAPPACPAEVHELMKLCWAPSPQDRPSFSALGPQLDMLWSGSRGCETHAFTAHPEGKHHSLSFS
Chain of JAK1 (P23458 whole entry): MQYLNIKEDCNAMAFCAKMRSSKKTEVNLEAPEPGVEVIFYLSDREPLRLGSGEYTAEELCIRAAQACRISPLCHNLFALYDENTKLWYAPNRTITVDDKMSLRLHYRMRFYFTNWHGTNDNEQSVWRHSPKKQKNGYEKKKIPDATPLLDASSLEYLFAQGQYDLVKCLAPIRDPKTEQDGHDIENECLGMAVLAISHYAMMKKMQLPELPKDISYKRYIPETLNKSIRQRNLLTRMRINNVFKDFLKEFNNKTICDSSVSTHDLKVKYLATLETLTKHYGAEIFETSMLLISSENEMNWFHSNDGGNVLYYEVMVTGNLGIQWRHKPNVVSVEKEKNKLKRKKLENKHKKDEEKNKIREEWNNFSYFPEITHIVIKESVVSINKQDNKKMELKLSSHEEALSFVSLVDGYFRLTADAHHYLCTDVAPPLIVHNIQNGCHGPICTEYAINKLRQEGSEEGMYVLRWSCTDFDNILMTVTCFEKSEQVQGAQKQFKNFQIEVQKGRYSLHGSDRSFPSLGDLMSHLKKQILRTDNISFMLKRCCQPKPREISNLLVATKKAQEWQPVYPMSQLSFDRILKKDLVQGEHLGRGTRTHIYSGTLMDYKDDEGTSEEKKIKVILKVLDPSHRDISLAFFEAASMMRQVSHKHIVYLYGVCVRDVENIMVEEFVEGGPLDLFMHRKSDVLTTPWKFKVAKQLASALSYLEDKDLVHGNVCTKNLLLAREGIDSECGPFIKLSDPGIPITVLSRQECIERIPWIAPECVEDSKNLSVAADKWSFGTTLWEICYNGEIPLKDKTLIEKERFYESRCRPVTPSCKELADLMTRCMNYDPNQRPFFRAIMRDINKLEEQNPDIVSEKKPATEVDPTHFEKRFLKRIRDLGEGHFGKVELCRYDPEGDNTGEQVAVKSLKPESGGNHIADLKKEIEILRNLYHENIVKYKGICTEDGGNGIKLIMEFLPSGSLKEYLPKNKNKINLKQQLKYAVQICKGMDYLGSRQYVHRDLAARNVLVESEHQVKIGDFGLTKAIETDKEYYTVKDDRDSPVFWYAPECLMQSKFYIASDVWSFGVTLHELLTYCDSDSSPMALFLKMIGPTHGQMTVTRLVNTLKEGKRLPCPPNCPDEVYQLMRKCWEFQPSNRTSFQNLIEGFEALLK

SMILES: C=CC(=O)N1CC(CCn2c(=O)ccc3cnc(Nc4ccc(N5CCN(C)CC5)c(OC)c4)nc32)C1 [Example 135]
- JAK 1 (pKi) [1]: E (E represents a pKi value of 7 or below (Ki of 100 nM or above))
- JAK 2 (pKi) [2]: E (E represents a pKi value of 7 or below (Ki of 100 nM or above))
- JAK 3 (pKi) [3]: B (B represents pKi value between 9 and 10 (Ki between 1 nM and 0.1 nM))
- JAK3 (pKi)-JAK1 (pKi) [3]: A (A represents a value of 3 or above)
- Tyk 2 (pKi) [4]: E (E represents a pKi value of 7 or below (Ki of 100 nM or above))
- Tall-1 (pIC50) [5]: B (B represents a pC50 value between 6.7 (included) and 7.5 (IC50 between 200 nM and 32 nM))
- Caco Kp [6]: A (A represents a value below 5×10^−6 cm/sec)

SMILES: C=CC(=O)N1CC(CCn2c(=O)ccc3cnc(Nc4ccc(N5CCN(C(=O)C(F)(F)F)CC5)cc4)nc32)C1 [Example 109]
- JAK 1 (pKi) [1]: D (D represents a pKi value between 7 and 8 (Ki between 100 nM and 10 nM))
- JAK 2 (pKi) [2]: E (E represents a pKi value of 7 or below (Ki of 100 nM or above))
- JAK 3 (pKi) [3]: B (B represents pKi value between 9 and 10 (Ki between 1 nM and 0.1 nM))
- JAK3 (pKi)-JAK1 (pKi) [3]: B (B represents a value of 2.5 to 3)
- Tyk 2 (pKi) [4]: E (E represents a pKi value of 7 or below (Ki of 100 nM or above))
- Tall-1 (pIC50) [5]: B (B represents a pC50 value between 6.7 (included) and 7.5 (IC50 between 200 nM and 32 nM))
- Caco Kp [6]: C (C represents a value between 10×10^−6 and 30×10^−6 cm/sec)

SMILES: C=CC(=O)N1CCN(CCn2c(=O)ccc3cnc(Nc4cnn(C(C)(C)COC)c4)nc32)[C@@H](CC)C1 [Example 203]
- JAK 1 (pKi) [1]: E (E represents a pKi value of 7 or below (Ki of 100 nM or above))
- JAK 2 (pKi) [2]: E (E represents a pKi value of 7 or below (Ki of 100 nM or above))
- JAK 3 (pKi) [3]: B (B represents pKi value between 9 and 10 (Ki between 1 nM and 0.1 nM))
- JAK3 (pKi)-JAK1 (pKi) [3]: A (A represents a value of 3 or above)
- Tyk 2 (pKi) [4]: E (E represents a pKi value of 7 or below (Ki of 100 nM or above))
- Tall-1 (pIC50) [5]: B (B represents a pC50 value between 6.7 (included) and 7.5 (IC50 between 200 nM and 32 nM))
- Caco Kp [6]: C (C represents a value between 10×10^−6 and 30×10^−6 cm/sec)

SMILES: C=CC(=O)N1CC(CCn2c(=O)ccc3cnc(Nc4ccc(N5CCN(C(=O)SC(C)(C)C)CC5)cc4)nc32)C1 [Example 98]
- JAK 1 (pKi) [1]: E (E represents a pKi value of 7 or below (Ki of 100 nM or above))
- JAK 2 (pKi) [2]: E (E represents a pKi value of 7 or below (Ki of 100 nM or above))
- JAK 3 (pKi) [3]: A (A represents a pKi value≥10 (Ki≤0.1 nM))
- JAK3 (pKi)-JAK1 (pKi) [3]: A (A represents a value of 3 or above)
- Tyk 2 (pKi) [4]: E (E represents a pKi value of 7 or below (Ki of 100 nM or above))
- Tall-1 (pIC50) [5]: B (B represents a pC50 value between 6.7 (included) and 7.5 (IC50 between 200 nM and 32 nM))
- Caco Kp [6]: A (A represents a value below 5×10^−6 cm/sec)

SMILES: C=CC(=O)N1CCN(CCn2c(=O)ccc3cnc(Nc4ccc(N5CCN(C(=O)COC)CC5)cc4)nc32)[C@@H](CC)C1 [Example 186]
- JAK 1 (pKi) [1]: E (E represents a pKi value of 7 or below (Ki of 100 nM or above))
- JAK 2 (pKi) [2]: E (E represents a pKi value of 7 or below (Ki of 100 nM or above))
- JAK 3 (pKi) [3]: B (B represents pKi value between 9 and 10 (Ki between 1 nM and 0.1 nM))
- JAK3 (pKi)-JAK1 (pKi) [3]: A (A represents a value of 3 or above)
- Tyk 2 (pKi) [4]: E (E represents a pKi value of 7 or below (Ki of 100 nM or above))
- Tall-1 (pIC50) [5]: B (B represents a pC50 value between 6.7 (included) and 7.5 (IC50 between 200 nM and 32 nM))
- Caco Kp [6]: A (A represents a value below 5×10^−6 cm/sec)

SMILES: C=CC(=O)N1CC(CCn2c(=O)ccc3cnc(Nc4cnn(CCN(CC)CC)c4)nc32)C1 [Example 55]
- JAK 1 (pKi) [1]: E (E represents a pKi value of 7 or below (Ki of 100 nM or above))
- JAK 2 (pKi) [2]: E (E represents a pKi value of 7 or below (Ki of 100 nM or above))
- JAK 3 (pKi) [3]: B (B represents pKi value between 9 and 10 (Ki between 1 nM and 0.1 nM))
- JAK3 (pKi)-JAK1 (pKi) [3]: A (A represents a value of 3 or above)
- Tyk 2 (pKi) [4]: E (E represents a pKi value of 7 or below (Ki of 100 nM or above))
- Tall-1 (pIC50) [5]: B (B represents a pC50 value between 6.7 (included) and 7.5 (IC50 between 200 nM and 32 nM))
- Caco Kp [6]: A (A represents a value below 5×10^−6 cm/sec)
